Test results as given in US12465616B2, “Methods and compositions for disrupting biofilm utilizing chitosan-derivative compounds” (SYNEDGEN, INC., priority 2009, dated 2025).

Test system: MRSA MW-2
Experiment: Prophylactic activity on pigskin
Format: cell-based, Staphylococcus aureus
Settings: treatment dried 1-hour, about 10^3 CFU for 1-hour; chitosan-arginine 60 μg/cm^2 in 70% ethanol (21 kDa, 29% functionalized, FIG. 24); hydrogen peroxide 3%

SMILES | prophylactic activity, qualitative CFU recovered from treated skin surface
CCO [70% ethanol, ethanol] | no prophylactic activity
OO [hydrogen peroxide] | no prophylactic activity
